Values quoted from earlier work as cited in patent publication US20100297230A1, “COMPOSITIONS AND METHODS FOR PROSTATE AND MENSTRUAL/MENOPAUSAL RELATED HEALTH” (priority 2009, published 2010).
“Also recorded” adds a separate entry of the source. Where two headings read alike, the source gives them in different places. Each block holds one molecule with its values, some of them ahead of it.

Legend:
[1] = test system: rats with prostatic hyperplasia; conditions: testosterone enanthate treated rats; 0.1 mg benzylglucosinolate
estrogen receptor beta = estrogen receptor beta (Homo sapiens, UniProt Q92731)
Chain of estrogen receptor beta (Q92731 whole entry, species assumed): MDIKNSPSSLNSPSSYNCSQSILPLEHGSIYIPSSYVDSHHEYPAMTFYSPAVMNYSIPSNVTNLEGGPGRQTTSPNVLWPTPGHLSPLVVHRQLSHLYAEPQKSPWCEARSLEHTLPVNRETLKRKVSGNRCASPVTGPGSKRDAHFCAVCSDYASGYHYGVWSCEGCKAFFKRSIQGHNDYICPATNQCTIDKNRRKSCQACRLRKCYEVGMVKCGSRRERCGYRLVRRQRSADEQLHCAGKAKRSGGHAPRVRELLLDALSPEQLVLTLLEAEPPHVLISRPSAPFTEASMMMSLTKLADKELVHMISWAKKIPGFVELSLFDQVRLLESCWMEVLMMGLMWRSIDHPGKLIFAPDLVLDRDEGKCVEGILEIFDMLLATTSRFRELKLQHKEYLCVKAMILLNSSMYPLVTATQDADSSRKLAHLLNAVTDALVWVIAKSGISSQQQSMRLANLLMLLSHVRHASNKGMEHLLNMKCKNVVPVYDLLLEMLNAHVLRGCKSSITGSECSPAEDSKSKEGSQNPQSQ

[2] = target: T1, primary alpha receptor (estrogen receptor) (Homo sapiens, UniProt P03372)
T1 sequence (P03372 1-595): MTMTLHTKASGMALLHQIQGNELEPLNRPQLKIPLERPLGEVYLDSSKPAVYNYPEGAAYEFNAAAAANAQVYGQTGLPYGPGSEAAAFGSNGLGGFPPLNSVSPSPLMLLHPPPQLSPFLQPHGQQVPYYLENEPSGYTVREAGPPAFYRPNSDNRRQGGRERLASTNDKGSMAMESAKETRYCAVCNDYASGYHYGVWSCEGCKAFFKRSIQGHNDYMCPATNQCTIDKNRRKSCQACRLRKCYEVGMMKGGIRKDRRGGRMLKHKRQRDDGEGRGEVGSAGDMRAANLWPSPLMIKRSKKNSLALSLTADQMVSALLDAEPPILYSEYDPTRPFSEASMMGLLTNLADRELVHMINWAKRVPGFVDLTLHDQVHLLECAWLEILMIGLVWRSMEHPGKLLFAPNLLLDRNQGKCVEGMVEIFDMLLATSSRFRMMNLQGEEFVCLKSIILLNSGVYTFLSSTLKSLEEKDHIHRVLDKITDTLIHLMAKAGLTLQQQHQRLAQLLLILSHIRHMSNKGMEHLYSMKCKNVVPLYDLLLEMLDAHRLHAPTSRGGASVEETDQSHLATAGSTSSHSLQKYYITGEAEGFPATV

[3] = single dose of Epimedium tea
[4] = test system: late postmenopausal women; conditions: daily 60 mg icariin, 15 mg daidzein, 3 mg genistein; over 25 months; compared to placebo
MMP2 = conditions: PC-3 cells
[5] = male and female subjects 18-55 yrs
rats = conditions: for prostate and seminal vesicle size: 270 mg/kg daily injection, compared to all other treatments, P<0.05
MMP9 = conditions: PC-3 cells
[6] = in vivo
[7] = test system: human prostatic smooth muscle cells
[8] = test system: human prostate carcinoma PC-3 cells; conditions: in vitro

Structure (SMILES): O=S(=O)(O)O/N=C(\Cc1ccccc1)S[C@@H]1O[C@H](CO)[C@@H](O)[C@H](O)[C@H]1O [Benzylglucosinolate]
prostate weight [1]: as effective at reducing prostate weight as 0.1 mg finasteride

Structure (SMILES): COc1ccc(-c2oc3c(CC=C(C)C)c(O[C@@H]4O[C@H](CO)[C@@H](O)[C@H](O)[C@H]4O)cc(O)c3c(=O)c2O[C@@H]2O[C@@H](C)[C@H](O)[C@@H](O)[C@H]2O)cc1 [icariin, 5-hydroxy-2-(4-methoxyphenyl)-8-(3-methylbut-2-enyl)-7-[(2S,3R,4S,5S,6R)-3,4,5-trihydroxy-6-(hydroxymethyl)oxan-2-yl]oxy-3-[(2S,3R,4R,5R,6S)-3,4,5-trihydroxy-6-methyloxan-2-yl]oxychromen-4-one]
interaction with estrogen receptor beta (estrogen receptor beta): interact with estrogen receptor beta; also recorded: targets the beta receptor over the alpha receptor | interaction with estrogen receptor alpha [2]: not with the primary alpha receptor | peak serum icariin concentration ([3]; 12.6 mg icariin ingested): 2.1 ng/mL | bone mass density / bone loss [4]: increases bone density

Structure (SMILES): COc1ccc(-c2oc3c(CC=C(C)C)c(O)cc(O)c3c(=O)c2O)cc1 [icaritin]
apoptosis of human prostatic smooth muscle cells [7]: inducing apoptosis; also recorded: induces apoptosis | cyclin D1 and CDK4 expression [7]: decreases | growth of human prostatic smooth muscle cells [7]: reduces the growth | time of peak icaritin level [3]: 8 h | growth of prostate carcinoma cells [8]: inhibit prostate cancer cell growth | growth of prostate carcinoma cells ([8]; listed as Icaritin): strongly inhibited growth

Second part, led by results:

serum desmethylicaritin ([3]; desmethyl-icaritin 0.19 mg): not detected
Structure (SMILES): CC(C)=CCc1c(O)cc(O)c2c(=O)c(O)c(-c3ccc(O)cc3)oc12 [Desmethylicaritin]

peak plasma concentration [5]: 463 ng/mL | time to peak plasma concentration [5]: 3.5 h
Structure (SMILES): O=c1c(O)c(-c2ccc(O)c(O)c2)oc2cc(O)cc(O)c12 [quercetin, 2-(3,4-dihydroxyphenyl)-3,5,7-trihydroxy-4H-chromen-4-one]
MMP2 activity (MMP2; P<0.05): significantly inhibited | MMP2 expression (MMP2; dose dependent manner): inhibited | prostate and seminal vesicle size (rats): decreased significantly | prostate and seminal vesicle size (rats; listed as Quercetin): effective at reducing prostate size | sperm quality and sexual organ function (rats; 270 mg/kg group): positive effect | MMP9 activity (MMP9; P<0.05): significantly inhibited | MMP9 expression (MMP9; dose dependent manner): inhibited

metabolic conversion [6]: converted to 3-O-methyl rosmarinic acid | time to enter the system after administration [6]: ≤ 20 min
Structure (SMILES): O=C(/C=C/c1ccc(O)c(O)c1)O[C@H](Cc1ccc(O)c(O)c1)C(=O)O [Rosmarinic acid]
AP-1-dependent activation of COX-2 expression (COX-2 expression): potential preventative effects
